Measurements: publication PMC9071458, “The tRNA discriminator base defines the mutual orthogonality of two distinct pyrrolysyl-tRNA synthetase/tRNA^Pyl pairs in the same organism” (Nucleic Acids Research, 2022)

Experiments:
Assay in all cases: UAG suppression of SAMP1 reporter in H. volcanii, immunoblot and LC-MS/MS of the product
Type in all cases: cell-based
HMET1 PylRS1 [1] = target: T1, HMET1 PylRS1 (Candidatus Methanohalarchaeum thermophilum, UniProt A0A1Q6DXK2, N163S/V165I); details: 1 mM 3-I-Phe in medium, tRNAPyl1, 42 °C; printed as PylRS1-SI
T1 construct: gene BTN85_1602; deltaPylSn type (catalytic domain only), N-terminal 6xHis tag, expressed in Haloferax volcanii
T1 sequence (A0A1Q6DXK2 entry or part of it N163S/V165I): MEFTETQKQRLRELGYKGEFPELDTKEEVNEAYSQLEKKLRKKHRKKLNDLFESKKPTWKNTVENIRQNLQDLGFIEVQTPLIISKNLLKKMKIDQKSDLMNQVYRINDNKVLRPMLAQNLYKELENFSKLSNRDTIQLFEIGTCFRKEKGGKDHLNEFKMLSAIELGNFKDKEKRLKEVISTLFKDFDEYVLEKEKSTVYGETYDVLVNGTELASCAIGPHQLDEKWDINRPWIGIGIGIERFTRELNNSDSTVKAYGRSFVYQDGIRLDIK

HMET1 PylRS2 = target: T2, HMET1 PylRS2 (Candidatus Methanohalarchaeum thermophilum, UniProt A0A1Q6DTA0); details: 1 mM BocK in medium, cognate tRNAPyl2, 42 °C
T2 construct: gene BTN85_0018; deltaPylSn type (catalytic domain only), N-terminal 6xHis tag, expressed in Haloferax volcanii
T2 sequence (A0A1Q6DTA0 1-273): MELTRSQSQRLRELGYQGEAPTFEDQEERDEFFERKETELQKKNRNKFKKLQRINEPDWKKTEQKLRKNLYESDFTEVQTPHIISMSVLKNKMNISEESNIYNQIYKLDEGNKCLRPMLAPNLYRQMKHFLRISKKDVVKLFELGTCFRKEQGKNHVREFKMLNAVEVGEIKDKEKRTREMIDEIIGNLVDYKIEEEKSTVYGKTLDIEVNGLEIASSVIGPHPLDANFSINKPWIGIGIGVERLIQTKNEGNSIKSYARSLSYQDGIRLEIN

HMET1 PylRS1 [2] = target: T3, HMET1 PylRS1 (Candidatus Methanohalarchaeum thermophilum, UniProt A0A1Q6DXK2); details: 1 mM BocK in medium, cognate tRNAPyl1, 42 °C
T3 construct: gene BTN85_1602; deltaPylSn type (catalytic domain only), N-terminal 6xHis tag, expressed in Haloferax volcanii
T3 sequence (A0A1Q6DXK2 1-273): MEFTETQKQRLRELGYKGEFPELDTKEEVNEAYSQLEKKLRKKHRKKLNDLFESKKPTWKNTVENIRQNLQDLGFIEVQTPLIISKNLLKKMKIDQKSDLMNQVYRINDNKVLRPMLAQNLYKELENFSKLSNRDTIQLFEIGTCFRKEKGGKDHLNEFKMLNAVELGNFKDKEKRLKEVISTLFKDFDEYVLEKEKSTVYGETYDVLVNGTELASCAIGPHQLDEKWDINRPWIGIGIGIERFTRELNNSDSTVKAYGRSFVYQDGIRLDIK

| Compound | UAG suppression of SAMP1 reporter in H. volcanii, immunoblot and LC-MS/MS of the (HMET1 PylRS1 [1]) | UAG suppression of SAMP1 reporter in H. volcanii, immunoblot and LC-MS/MS of the (HMET1 PylRS2) | UAG suppression of SAMP1 reporter in H. volcanii, immunoblot and LC-MS/MS of the (HMET1 PylRS1 [2]) |
| --- | --- | --- | --- |
| N[C@@H](Cc1cccc(I)c1)C(=O)O [3-I-Phe] | The PylRS1-SI/tRNA^Pyl1 pair exhibited strong amber suppression in a 3-I-Phe-dependent manner | – | – |
| CC(C)(C)OC(=O)NCCCC[C@H](N)C(=O)O [BocK] | – | native HMET1 PylRS/tRNA^Pyl pairs incorporate BocK into proteins via genetic code expansion in H. volcanii | both HMET1 PylRS/tRNA^Pyl pairs facilitated efficient amber suppression |
